Measured values taken from PubChem BioAssay AID2060506 (Molecular Pharmacology Branch, DTP, NCI, 2025).

Test system: 598228-144-R-J1-PDC complex spheroid viability
Test: Anticancer human tumor 598228-144-R-J1-PDC patient-derived serous endometrial adenocarcinoma cell line growth inhibition [GQUAD]
Conditions: for IC50: curve of first compound; for viability, T/C: stronger effect = lower value
Summary of the method: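 Tumor cells were grown as complex spheroids with HUVEC endothelial cells and mesenchymal stem cells as stroma. G-quadruplex stabilizers were combined with targeted agents over half-log dilutions from near the clinical Cmax, or from 10 microM.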

[1] = second compound 0.0316 µM, first compound 0.0316 µM
[2] = second compound 0.0316 µM, first compound 0.1 µM
[3] = second compound 0.0316 µM, first compound 0.316 µM
[4] = second compound 0.0316 µM, first compound 1 µM
[5] = second compound 0.0316 µM, first compound 3.16 µM
[6] = second compound 0.0316 µM, first compound 10 µM
[7] = second compound 0.1 µM, first compound 0.0316 µM
[8] = second compound 0.1 µM, first compound 0.1 µM
[9] = second compound 0.1 µM, first compound 0.316 µM
[10] = second compound 0.1 µM, first compound 1 µM
[11] = second compound 0.1 µM, first compound 3.16 µM
[12] = second compound 0.1 µM, first compound 10 µM
[13] = second compound 0.316 µM, first compound 0.0316 µM
[14] = second compound 0.316 µM, first compound 0.1 µM
[15] = second compound 0.316 µM, first compound 0.316 µM
[16] = second compound 0.316 µM, first compound 1 µM
[17] = second compound 0.316 µM, first compound 3.16 µM
[18] = second compound 0.316 µM, first compound 10 µM
[19] = second compound 1 µM, first compound 0.0316 µM
[20] = second compound 1 µM, first compound 0.1 µM
[21] = second compound 1 µM, first compound 0.316 µM
[22] = second compound 1 µM, first compound 1 µM
[23] = second compound 1 µM, first compound 3.16 µM
[24] = second compound 1 µM, first compound 10 µM
[25] = second compound 3.16 µM, first compound 0.0316 µM
[26] = second compound 3.16 µM, first compound 0.1 µM
[27] = second compound 3.16 µM, first compound 0.316 µM
[28] = second compound 3.16 µM, first compound 1 µM
[29] = second compound 3.16 µM, first compound 3.16 µM
[30] = second compound 3.16 µM, first compound 10 µM
[31] = second compound 10 µM, first compound 0.0316 µM
[32] = second compound 10 µM, first compound 0.1 µM
[33] = second compound 10 µM, first compound 0.316 µM
[34] = second compound 10 µM, first compound 1 µM
[35] = second compound 10 µM, first compound 3.16 µM
[36] = second compound 10 µM, first compound 10 µM
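Note: spheroids exposed to the agents for one week before reading.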
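Throughout, for viability, T/C: percent of vehicle DMSO control viability so 100% = untreated growth.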

C#Cc1c(F)ccc2cc(O)cc(-c3ncc4c(N5CC6CCC(C5)N6)nc(OCC56CCCN5CC(F)C6)nc4c3F)c12 (stereo not drawn) + CN(C)c1ccc(Nc2c3ccc(NC(=O)CCN4CCCC4)cc3nc3cc(NC(=O)CCN4CCCC4)ccc23)cc1
IC50 (second compound 0.0316 µM): > 10 µM | IC50 (second compound 0.1 µM): > 10 µM | IC50 (second compound 0.316 µM): > 10 µM | IC50 (second compound 1 µM): > 10 µM | IC50 (second compound 3.16 µM): > 10 µM | IC50 (second compound 10 µM): 4.61 µM | viability, T/C [1]: 92.2% | viability, T/C [2]: 104% | viability, T/C [3]: 104% | viability, T/C [4]: 88.5% | viability, T/C [5]: 88.9% | viability, T/C [6]: 101% | viability, T/C [7]: 103% | viability, T/C [8]: 118% | viability, T/C [9]: 104% | viability, T/C [10]: 100% | viability, T/C [11]: 88.5% | viability, T/C [12]: 94.9% | viability, T/C [13]: 102% | viability, T/C [14]: 94.1% | viability, T/C [15]: 115% | viability, T/C [16]: 83.5% | viability, T/C [17]: 102% | viability, T/C [18]: 88% | viability, T/C [19]: 87% | viability, T/C [20]: 102% | viability, T/C [21]: 110% | viability, T/C [22]: 104% | viability, T/C [23]: 98.9% | viability, T/C [24]: 92.9% | viability, T/C [25]: 106% | viability, T/C [26]: 101% | viability, T/C [27]: 93.7% | viability, T/C [28]: 89.8% | viability, T/C [29]: 83.3% | viability, T/C [30]: 84.1% | viability, T/C [31]: 86.1% | viability, T/C [32]: 89.3% | viability, T/C [33]: 93.9% | viability, T/C [34]: 66% | viability, T/C [35]: 64.2% | viability, T/C [36]: 28.7%

CC(=O)O[C@H]1C(=O)[C@@]2(C)[C@H]([C@H](OC(=O)c3ccccc3)[C@]3(O)C[C@H](OC(=O)[C@H](O)[C@@H](NC(=O)c4ccccc4)c4ccccc4)C(C)=C1C3(C)C)[C@]1(OC(C)=O)CO[C@@H]1C[C@@H]2O + CN(C)c1ccc(Nc2c3ccc(NC(=O)CCN4CCCC4)cc3nc3cc(NC(=O)CCN4CCCC4)ccc23)cc1
IC50 (second compound 0.0316 µM): < 0.0316 µM | IC50 (second compound 0.1 µM): < 0.0316 µM | IC50 (second compound 0.316 µM): < 0.0316 µM | IC50 (second compound 1 µM): < 0.0316 µM | IC50 (second compound 3.16 µM): < 0.0316 µM | IC50 (second compound 10 µM): < 0.0316 µM | viability, T/C [1]: 49.4% | viability, T/C [2]: 43.3% | viability, T/C [3]: 44.2% | viability, T/C [4]: 32.9% | viability, T/C [5]: 37.3% | viability, T/C [6]: 53.6% | viability, T/C [7]: 47.6% | viability, T/C [8]: 43.1% | viability, T/C [9]: 35% | viability, T/C [10]: 38.2% | viability, T/C [11]: 33.7% | viability, T/C [12]: 35.4% | viability, T/C [13]: 47.6% | viability, T/C [14]: 40.9% | viability, T/C [15]: 40.7% | viability, T/C [16]: 34.6% | viability, T/C [17]: 47% | viability, T/C [18]: 49.4% | viability, T/C [19]: 51.8% | viability, T/C [20]: 38.7% | viability, T/C [21]: 41.9% | viability, T/C [22]: 42.1% | viability, T/C [23]: 45.4% | viability, T/C [24]: 37% | viability, T/C [25]: 51.6% | viability, T/C [26]: 34.6% | viability, T/C [27]: 41.6% | viability, T/C [28]: 38.9% | viability, T/C [29]: 33.1% | viability, T/C [30]: 38.1% | viability, T/C [31]: 29.1% | viability, T/C [32]: 29.6% | viability, T/C [33]: 29.1% | viability, T/C [34]: 25.2% | viability, T/C [35]: 19.4% | viability, T/C [36]: 30.9%

CCCS(=O)(=O)Nc1ccc(F)c(C(=O)c2c[nH]c3ncc(-c4ccc(Cl)cc4)cc23)c1F + CN(C)c1ccc(Nc2c3ccc(NC(=O)CCN4CCCC4)cc3nc3cc(NC(=O)CCN4CCCC4)ccc23)cc1
IC50 (second compound 0.0316 µM): 7.87 µM | IC50 (second compound 0.1 µM): 7.44 µM | IC50 (second compound 0.316 µM): 7.33 µM | IC50 (second compound 1 µM): 7.65 µM | IC50 (second compound 3.16 µM): 7.08 µM | IC50 (second compound 10 µM): 5.21 µM | viability, T/C [1]: 105% | viability, T/C [2]: 121% | viability, T/C [3]: 93.8% | viability, T/C [4]: 107% | viability, T/C [5]: 110% | viability, T/C [6]: 34.8% | viability, T/C [7]: 94.3% | viability, T/C [8]: 104% | viability, T/C [9]: 111% | viability, T/C [10]: 109% | viability, T/C [11]: 123% | viability, T/C [12]: 29.8% | viability, T/C [13]: 122% | viability, T/C [14]: 108% | viability, T/C [15]: 97.1% | viability, T/C [16]: 124% | viability, T/C [17]: 93.2% | viability, T/C [18]: 34.1% | viability, T/C [19]: 89.3% | viability, T/C [20]: 99.2% | viability, T/C [21]: 110% | viability, T/C [22]: 133% | viability, T/C [23]: 108% | viability, T/C [24]: 32.6% | viability, T/C [25]: 94.1% | viability, T/C [26]: 95.4% | viability, T/C [27]: 80.8% | viability, T/C [28]: 118% | viability, T/C [29]: 100% | viability, T/C [30]: 29.3% | viability, T/C [31]: 103% | viability, T/C [32]: 75.3% | viability, T/C [33]: 100% | viability, T/C [34]: 86.8% | viability, T/C [35]: 74% | viability, T/C [36]: 19.2%

O=c1[nH]cc(F)c(=O)[nH]1 + CN(C)c1ccc(Nc2c3ccc(NC(=O)CCN4CCCC4)cc3nc3cc(NC(=O)CCN4CCCC4)ccc23)cc1
IC50 (second compound 0.0316 µM): > 10 µM | IC50 (second compound 0.1 µM): > 10 µM | IC50 (second compound 0.316 µM): > 10 µM | IC50 (second compound 1 µM): > 10 µM | IC50 (second compound 3.16 µM): > 10 µM | IC50 (second compound 10 µM): > 10 µM | viability, T/C [1]: 121% | viability, T/C [2]: 95% | viability, T/C [3]: 102% | viability, T/C [4]: 91.3% | viability, T/C [5]: 89.8% | viability, T/C [6]: 90.8% | viability, T/C [7]: 104% | viability, T/C [8]: 106% | viability, T/C [9]: 132% | viability, T/C [10]: 100% | viability, T/C [11]: 96.8% | viability, T/C [12]: 65.5% | viability, T/C [13]: 103% | viability, T/C [14]: 105% | viability, T/C [15]: 104% | viability, T/C [16]: 108% | viability, T/C [17]: 104% | viability, T/C [18]: 97% | viability, T/C [19]: 107% | viability, T/C [20]: 112% | viability, T/C [21]: 106% | viability, T/C [22]: 99.1% | viability, T/C [23]: 111% | viability, T/C [24]: 81.5% | viability, T/C [25]: 81% | viability, T/C [26]: 113% | viability, T/C [27]: 127% | viability, T/C [28]: 98.5% | viability, T/C [29]: 125% | viability, T/C [30]: 61.8% | viability, T/C [31]: 82.7% | viability, T/C [32]: 71.3% | viability, T/C [33]: 95.4% | viability, T/C [34]: 88.7% | viability, T/C [35]: 88.5% | viability, T/C [36]: 64%
